Measured values: US20160311812A1, “ADENOSINE A1 AGONISTS AS MEDICAMENTS FOR KIDNEY DISORDERS” (BAYER PHARMA AKTIENGESELLSCHAFT, priority 2013, published 2016)

Experiments:
[1] = system: unilaterally nephrectomized SHR; test: Functional and structural myocardial dysfunction in unilaterally nephrectomized spontaneously hypertensive rats; type: in vivo, rat; conditions: Group 3: UNX + 10 mg/kg body weight/day in drinking water, 4 weeks
Source text: (§1) B-4. Effects of Partial A1 Agonists on Renal and Cardiac Function in Unilaterally Nephrectomized and Spontaneously Hypertensive Rats (Example 2 for Chronic Kidney Disorders)
(§2) Unilaterally nephrectomized, spontaneously hypertensive rats (SHR) are an established animal model for investigating the development and progression of hypertensive damage of the glomeruli in the remaining kidney [H. Kinuno et al., “Effects of uninephrectomy on renal structural properties in spontaneously hypertensive rats”, Clin and Exp Pharmacol and Physiol 2005, 32, 173-178]. […] Furthermore, renal excretion of substances usually eliminated in the urine, such as creatinine and urea, is reduced and the electrolyte metabolism is disturbed, the latter being associated with volume retention.
(§3) Procedure: male SHR rats (180-220 g) from Taconic had the left kidney removed in one session (=UNX). Normotensive Wistar Kyoto rats (WKY) from Taconic served as control. The following groups, each with 12 rats per group, were investigated:
(§4) Group 2 UNX+placebo (60 g glycerol+100 g water+969 g PEG-400)
(§5) Group 3 UNX+10 mg/kg body weight/day enalapril (reference therapy, in the drinking water)
(§6) Group 4 SNX+1.0 mg/kg body weight/day partial A1 EXAMPLE 1, p.o. in placebo
(§7) Group 5 SNX+3.0 mg/kg body weight/day partial A1 EXAMPLE 4, p.o. in placebo
(§8) Three weeks after unilateral nephrectomy, the SHRs developed manifest hypertensive damage of the glomeruli in the remaining kidney, from this time point on the rats were treated for a further four weeks corresponding to the groups given above. At the end of the protocol, the following samples were obtained/measurements were carried out: eight-hour urine collection, invasive measurement of systolic and diastolic left ventricular function, and TaqMan analyses of renal injury markers in the renal cortex.

[2] = system: unilaterally nephrectomized SHR; test: Functional and structural renal dysfunction in unilaterally nephrectomized spontaneously hypertensive rats; type: in vivo, rat; conditions: Group 3: UNX + 10 mg/kg body weight/day in drinking water, 4 weeks
Source text: as §1, §2, §3, §4, §5, §6, §7, §8

[3] = system: 5/6 nephrectomy rat model; test: Left-ventricular diastolic dysfunction under isoprenaline infusion in 5/6 nephrectomized rats; type: in vivo; conditions: Group 3: SNX + 10 mg/kg body weight/day in drinking water, 4 weeks
Source text: (§9) B-3. Effects of Partial A1 Agonists on Renal and Cardiac Function in 5/6 Nephrectomized Rats (Example 1 for Chronic Kidney Disorder)
(§10) 5/6 nephrectomy in the rat, in which one kidney and the renal cortex of the second kidney are surgically removed (=5/6 of functional kidney tissue) is an established animal model for interstitial renal fibrosis and chronic renal insufficiency [C. Fleck et al., “Suitability of 5/6 nephrectomy (5/6NX) for the induction of interstitial renal fibrosis in rats Influence of sex, strain, and surgical procedure”, Exp. Tox. Pathology 2006, 57, 195-205]. The model is characterized by progressive proteinuria, disturbed tubular electrolyte transport, a reduced glomerular filtration rate, an increase in urinary output, interstitial fibrosis with reactively occurring lymphocyte infiltrates, glomerulosclerosis and tubular atrophy. The level of proteinuria is a specific index of the renal function prognosis: the higher the proteinuria, the greater is the functional and structural kidney injury and therefore progression of chronic to terminal renal insufficiency (uraemia). During monitoring of therapy, e.g. with the ACE inhibitor enalapril, the course of proteinuria provides information on the functional and structural response to the therapy and thus on the renal function prognosis. As a result of the renal insufficiency and accumulation of umemic toxins, in the animals there is secondary development of a umemic cardiomyopathy, depending on the severity associated with hypertension, increased heart rate, reduced parasympathetic tone, myocardial, left-ventricular hypertrophy and fibrosis, diastolic dysfunction and an increased prevalence of arrhythmias [Svilerova et al. 2010 Physiol Res 59: S81-S88).
(§11) Procedure: male Wistar:WU rats (210-250 g) from Charles River had the left kidney and the renal cortex of the right kidney removed (=SNX) in one session; sham-operated rats served as control group (=SOP). The following groups, each with 12 rats per group, were investigated:
(§12) Group 2 SNX+placebo (60 g glycerol+100 g water+969 g PEG-400)
(§13) Group 3 SNX+10 mg/kg body weight/day enalapril (reference therapy, in the drinking water)
(§14) Group 4 SNX+0.1 mg/kg body weight/day partial A1 agonist EXAMPLE 1, p.o. in placebo
(§15) Group 5 SNX+1.0 mg/kg body weight/day partial A1 agonist EXAMPLE 1, p.o. in placebo
(§16) Group 6 SNX+0.3 mg/kg body weight/day partial A1 agonist EXAMPLE 4, p.o. in placebo
(§17) Group 7 SNX+3.0 mg/kg body weight/day partial A1 agonist EXAMPLE 4, p.o. in placebo
(§18) Three weeks after 5/6 nephrectomy, the rats developed manifest proteinuria, from this time point the rats were treated for a further four weeks corresponding to the groups stated above. At the end of the protocol, the following samples were obtained/measurements were carried out: eight-hour urine collection with determination of the concentration of hFABP in the urine by ELISA (Rat/Mouse h-FABP ELISA, Hycultbiotech), as marker for end organ damage, invasive measurement of the isoprenaline-induced increase (cumulatively 12.5 ng-250 ng/kg isoprenaline, i.v.) in systolic and diastolic left ventricular function, and TaqMan analyses of renal injury markers in the renal cortex.

[4] = system: 5/6 nephrectomy rat model; test: Functional and structural renal dysfunction in 5/6 nephrectomized rats; type: in vivo; conditions: Group 3: SNX + 10 mg/kg body weight/day in drinking water, 4 weeks
Source text: as §9, §10, §11, §12, §13, §14, §15, §16, §17, §18

With `CCOC(=O)[C@H](CCc1ccccc1)N[C@@H](C)C(=O)N1CCC[C@H]1C(=O)O` [enalapril, reference compound] the Diastolic blood pressure [1] was 91 ± 5 mmHg, the Heart rate [1] was 353 ± 7 beats/min and the “Left ventricular hypertrophy (LVS/RV ratio, mg/mg)” value [1] was 3.7 ± 0.2 mg/mg. For the same compound, the Left-ventricular end-diastolic pressure [1] was 5.4 ± 0.6 mmHg, the Left-ventricular pressure [1] was 130 ± 5 mmHg and the “Pressure decrease over time” value [1] was −10130 ± 239 mmHg/s. The “Pressure increase over time” value [1] was 8114 ± 304 mmHg/s, the Systolic blood pressure [1] was 132 ± 4 mmHg and the P-creatinine [2] was 62 ± 1.6 mmol/L. It also gave a P-urea [2] of 9.3 ± 0.4 mmol/L, a U-creatinine [2] of 1.5 ± 0.3 μmol/ml urine/kg BW/h and a U-protein [2] of 0.43 ± 0.07 μmol/ml urine/kg BW/h. For the same compound, the U-sodium [2] was 30 ± 5 μmol/ml urine/kg BW/h, the U-urea [2] was 153 ± 27 μmol/ml urine/kg BW/h and the Urine volume [2] was 2.4 ± 0.2 ml/kg BW/h. For the same compound, the “CYR61 [gene expression]” value ([2]; renal cortex) was 460 ± 55 rel. expression, the “Lipocalin-2 [gene expression]” value ([2]; renal cortex) was 140 ± 23 rel. expression and the “left-ventricular pressure decrease as a function of time” value (from here on “left-ventricular pressure decrease”) ([3]; isoprenaline 0 ng/kg body weight) was 6613 ± 226 mmHg/s. For the same compound, the “left-ventricular pressure decrease” value ([3]; isoprenaline 12.5 ng/kg body weight) was 7972 ± 280 mmHg/s, the “left-ventricular pressure decrease” value ([3]; isoprenaline 25 ng/kg body weight) was 8297 ± 285 mmHg/s and the “left-ventricular pressure decrease” value ([3]; isoprenaline 50 ng/kg body weight) was 8705 ± 227 mmHg/s. The “left-ventricular pressure decrease” value ([3]; isoprenaline 100 ng/kg body weight) was 9267 ± 177 mmHg/s, the “left-ventricular pressure decrease” value ([3]; isoprenaline 250 ng/kg body weight) was 9359 ± 202 mmHg/s and the P-urea [4] was 15 ± 1 mmol/L. The U-creatinine [4] was 1.6 ± 0.2 μmol/ml urine/kg BW/h, the U-protein [4] was 0.25 ± 0.04 μmol/ml urine/kg BW/h and the U-sodium [4] was 18 ± 3 μmol/ml urine/kg BW/h. The U-urea [4] was 198 ± 22 μmol/ml urine/kg BW/h, the Urine volume [4] was 2.8 ± 0.2 ml/kg BW/h and the “End organ injury marker concentration in the urine: hFABP” value ([4]; ELISA) was 377 ± 151 pg hFABP/ml urine/h. For the same compound, the “End organ injury marker concentration in the urine: hFABP per creatinine” value ([4]; ELISA) was 83 ± 33 pg hFABP/μmol creatinine, the “Kidney injury marker-1 [gene expression]” value ([4]; renal cortex) was 27 ± 17 rel. expression and the “Lipocalin-2 [gene expression]” value ([4]; renal cortex) was 400 ± 236 rel. expression. The “Osteopontin [gene expression]” value ([4]; renal cortex) was 6226 ± 4107 rel. expression.
